Data from article PMC2956480, “A bivalent glycopeptide to target two putative carbohydrate binding sites on FimH” (Beilstein Journal of Organic Chemistry, 2010).
Where two headings read alike, the source gives them in different places. Marks after values point to notes of the source that are not given here.

What was measured:
[1] = system: type 1 fimbriated E. coli (HB101pPKL4); FimH-mediated binding to mannan; experiment: ELISA, inhibition of mannose-specific type 1 fimbriated E. coli adhesion to mannan-coated microtiter plates; assay type: cell-based
Method: The synthesis of the bivalent glycopeptide 1 was not optimized in order to improve all the individual yields, because it has been the primary goal of this study to test the anti-adhesive properties of this type of ligand. An ELISA was performed as reported earlier, employing type 1 fimbriated E. coli bacteria and mannan-coated microtiter plates. In this assay a mannosidic ligand competes with the polysaccharide mannan adsorbed on a polystyrene microtiter plate for FimH-mediated binding to the type 1 fimbriated bacteria. The inhibitory ligand is employed in serial dilutions. This leads to inhibition curves, from which IC50-values can be deduced. The IC50-values reﬂect the inhibitor concentration that causes 50% inhibition of bacterial binding to mannan. […] Here, RIPs were based on the IC50-value determined for MeMan on the same plate, which was defined as IP ≡ 1. […]
An ELISA protocol was used to determine the IC50-value of the bivalent target glycopeptide 1 in comparison with monovalent reference ligands, employing mannan-coated microtiter plates and type 1 fimbriated E. coli (HB101pPKL4) as described earlier Optical densities (ODs) were measured on an AMP 400 COM ELISA reader at 405 nm (reference wavelength 492 nm). The percentage inhibition was calculated as {[OD(nI)-OD(I)] × 100 × [OD(nI)]^−1} (nI: no inhibitor, I: with inhibitor). […]

[2] = system: type 1 fimbriated E. coli (HB101pPKL4); FimH-mediated binding to mannan; conditions: relative to MeMan, IP(MeMan) ≡ 1; ELISA, as reported earlier; ref 34 (DubberMSperlingOLindhorstT KOrg Biomol Chem2006439013912); cited from earlier work
Source text: Table 1 Inhibitory potencies in mannose-specific E. coli adhesion of the bivalent glycopeptide 1 in comparison with reference ligands, as determined by ELISA. IC50-values are average values from three independent assays. S: standard deviation; RIP: relative inhibitory potency based on methyl α-D-mannopyranoside (MeMan) with IP(MeMan) ≡ 1.

| Compound | IC50 ([1]; mannan from Saccharomyces cerversiae coated (1 mg × ml^−1, 50 mM aq Na2CO3, pH 9.6), type 1 fimbriated E. coli (HB101pPKL4), OD at 405 nm (reference 492 nm), inhibitor in serial dilutions, sigmoidal fit, average values from three independent assays, S (in parentheses): standard deviation, read-out: IC50 (inhibitor concentration that causes 50% inhibition of bacterial binding to mannan)) | RIP (relative inhibitory potency) ([1]; relative to IC50 of MeMan on the same plate, IP(MeMan) ≡ 1, type 1 fimbriated E. coli on mannan) | RIP (relative inhibitory potency) [2] |
| --- | --- | --- | --- |
| CO[C@H]1O[C@H](CO)[C@@H](O)[C@H](O)[C@@H]1O [MeMan, methyl α-D-mannopyranoside] | 2900 µM | 1 |  |
| C=CCO[C@H]1O[C@H](CO)[C@@H](O)[C@H](O[C@H]2O[C@H](CO)[C@@H](O)[C@H](O)[C@@H]2O)[C@@H]1O [allyl Man(1,3)Man, allyl 3-O-α-D-mannosyl-α-D-mannoside] |  |  | 7^a |
| C=CCO[C@H]1O[C@H](CO[C@H]2O[C@H](CO)[C@@H](O)[C@H](O)[C@@H]2O)[C@@H](O)[C@H](O[C@H]2O[C@H](CO)[C@@H](O)[C@H](O)[C@@H]2O)[C@@H]1O [allyl Man(1,3)[Man(1,6)]Man, allyl 3,6-di-O-(α-D-mannosyl)-α-D-mannoside] |  |  | 20^a |
| C=CCO[C@H]1O[C@H](CO[C@H]2O[C@H](CO)[C@@H](O)[C@H](O)[C@@H]2O)[C@@H](O)[C@H](O)[C@@H]1O [allyl Man(1,6)Man, allyl 6-O-α-D-mannosyl-α-D-mannoside] |  |  | 0.5^a |
